pIC50, pKd: −log10 of the molar value.
Legend:
[1] = biological target: T1, potassium ion channel hERG (Homo sapiens, UniProt Q12809); experiment: Assay 5 hERG assay (patch clamp, CHO cells over-expressing hERG); type: cell-based; conditions: SyncroPatch 384PE, room temperature, geometric mean, read-out: Assay 5 (hERG Hu CHO if EPh CR-Syncro) GMean IC50
T1 construct: expressed in transfected cells; host or cells: Chinese hamster ovary K1 (CHO)
In short: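 hERG currents recorded by automated patch clamp at room temperature in CHO-K1 cells, 6-point cumulative concentrations. SyncroPatch runs used KF-based internal (pH 7.2) and NMDG-containing external solution (pH 7.4), 0.33% DMSO; QPatchII runs used 2% or 0.4% DMSO. Only wells meeting seal-resistance and current-size criteria kept.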

PCSK9 [2] = biological target: PCSK9 (Homo sapiens, UniProt Q8NBP7, G670E/V474I); experiment: biochemical
Chain of PCSK9 (Homo sapiens, UniProt Q8NBP7, G670E/V474I) (Q8NBP7 with tags, fused parts or gaps V474I/G670E): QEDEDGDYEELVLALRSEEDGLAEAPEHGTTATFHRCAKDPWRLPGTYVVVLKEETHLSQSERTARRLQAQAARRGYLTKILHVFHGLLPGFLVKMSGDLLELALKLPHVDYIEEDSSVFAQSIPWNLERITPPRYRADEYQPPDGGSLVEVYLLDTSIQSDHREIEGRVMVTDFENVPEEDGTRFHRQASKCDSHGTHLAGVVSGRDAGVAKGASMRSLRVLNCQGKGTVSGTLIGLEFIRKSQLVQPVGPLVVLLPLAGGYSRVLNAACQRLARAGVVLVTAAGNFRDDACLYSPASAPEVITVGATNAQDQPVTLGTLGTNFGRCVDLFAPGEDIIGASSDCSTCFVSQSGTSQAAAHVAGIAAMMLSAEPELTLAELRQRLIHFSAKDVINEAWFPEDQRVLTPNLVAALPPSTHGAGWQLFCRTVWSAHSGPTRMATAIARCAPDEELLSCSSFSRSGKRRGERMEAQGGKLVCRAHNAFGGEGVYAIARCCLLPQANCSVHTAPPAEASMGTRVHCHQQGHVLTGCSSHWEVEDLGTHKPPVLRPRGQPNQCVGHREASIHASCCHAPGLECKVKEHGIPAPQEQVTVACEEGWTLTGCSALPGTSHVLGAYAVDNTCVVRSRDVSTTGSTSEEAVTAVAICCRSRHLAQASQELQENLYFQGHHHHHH

PCSK9 [3] = biological target: PCSK9 (Homo sapiens, UniProt Q8NBP7); experiment: Assay 2 Biophysical human PCSK9 assay (SPR, Biacore); type: binding; design: biotinylated human PCSK9 (31-692)-Avi-His6; His6 (C); conditions: single-cycle kinetics, 30° C., geometric mean, read-out: Assay 2 (PCSK9 BIAcore DBA Cr) GMean Kd
Chain of PCSK9 (Homo sapiens, UniProt Q8NBP7) (Q8NBP7 31-692): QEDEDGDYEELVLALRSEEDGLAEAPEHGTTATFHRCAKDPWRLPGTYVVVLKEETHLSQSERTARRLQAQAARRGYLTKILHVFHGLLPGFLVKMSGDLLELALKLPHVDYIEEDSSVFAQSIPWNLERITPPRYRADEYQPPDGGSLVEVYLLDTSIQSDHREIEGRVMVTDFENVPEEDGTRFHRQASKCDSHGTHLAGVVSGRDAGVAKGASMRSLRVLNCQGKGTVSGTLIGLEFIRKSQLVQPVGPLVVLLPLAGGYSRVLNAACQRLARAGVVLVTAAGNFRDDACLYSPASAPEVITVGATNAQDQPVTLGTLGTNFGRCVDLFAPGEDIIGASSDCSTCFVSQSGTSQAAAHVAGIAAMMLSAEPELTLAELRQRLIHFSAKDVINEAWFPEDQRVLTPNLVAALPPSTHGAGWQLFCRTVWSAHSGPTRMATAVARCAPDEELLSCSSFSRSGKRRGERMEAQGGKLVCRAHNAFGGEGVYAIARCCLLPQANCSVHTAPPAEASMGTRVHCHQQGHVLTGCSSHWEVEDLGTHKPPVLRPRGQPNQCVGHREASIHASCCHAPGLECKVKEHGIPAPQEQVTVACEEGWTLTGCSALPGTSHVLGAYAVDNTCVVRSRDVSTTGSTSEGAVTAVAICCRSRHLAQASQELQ
Procedure: The SPR binding experiments were performed on a Biacore S200 optical biosensor unit at 30° C. A Series S Sensor Chip SA that is designed to bind biotinylated molecules for interaction analysis in Biacore systems was equilibrated at room temperature prior to use. The running buffer for protein tethering and subsequent ligand binding experiments was 10 mM HEPES pH 7.4, 150 mM NaCl, 0.05% (v/v) Tween 20 pH 7.4.
For the surface tethering of PCSK9, biotinylated human PCSK9 (31-692)-Avi-His6 at a concentration of 0.5 mg/mL was used. Prior to the surface tethering, the surface was exposed to a solution of 50 mM NaOH, 500 mM NaCl via 3 consecutive injections of this solution with a contact time of 60 s and a flowrate of 10 μL min^−1 to remove non-conjugated streptavidin. The PCSK9 protein was diluted to a concentration of 20 μg/mL using running buffer and injected with a contact time of 180-300 s and a flowrate of 10 μL min^−1 over a single flow channel (typically flow channel 2 or flow channel 4) with the aim to achieve protein capture levels of >5000 response units (RU). Remaining biotin binding sites were blocked via 2 consecutive injections of a 10 μM D-biotin solution in running buffer with a contact time of 60 s and a flowrate of 10 μL min^−1 over all flow-channels. Flow-channels 1 and 3 typically served as a reference surface throughout the subsequent binding experiments.
The binding experiments were all performed at a flow rate of 30 PL min^−1 and by employing the method of single-cycle kinetics. This approach involves the sequential injection of a compound concentration series without regeneration steps. A contact time between 90-150 s was selected, which was followed by a 40 min dissociation phase to allow for a proper estimation of the dissociation rate constant. Test compounds were delivered in DMSO at a concentration of 10 mM and a digital dispenser HP D300 was used to set up the compound concentration series using 6 concentrations. The tested concentrations have been 30, 100, 300, 1000, 3000 and 10000 nM. Prior to injecting any compound, the surfaces were equilibrated by injecting running buffer over them in three separate pulses. The data collection rate was set to 10 Hz.
The raw sensorgrams of the compound injections were first subjected to reference subtraction (subtracting the signal from flow channel 1 and/or 3 from the signal from channels 2 and/or 4 respectively) and then blank subtraction (subtracting the signal from injecting DMSO controls from the reference subtracted data). The resulting double-referenced sensorgrams were then fitted using a 1:1 binding interaction model using the manufactures software package to extract kinetic- and affinity data. Active compounds have been defined by creating a detectable binding signal at the highest compound concentration ([…]) of 3 RUs. Kinetic- and affinity data on active compounds are only provided for those compounds where the binding signal at the highest compound concentration ([…]) is 50% of the theoretical maximum binding signal for a 1:1 binding interaction (Rmax, typically between 15-20 RUs) in order to enable a proper fitting of the data.

T1 sequence (Q12809 whole entry): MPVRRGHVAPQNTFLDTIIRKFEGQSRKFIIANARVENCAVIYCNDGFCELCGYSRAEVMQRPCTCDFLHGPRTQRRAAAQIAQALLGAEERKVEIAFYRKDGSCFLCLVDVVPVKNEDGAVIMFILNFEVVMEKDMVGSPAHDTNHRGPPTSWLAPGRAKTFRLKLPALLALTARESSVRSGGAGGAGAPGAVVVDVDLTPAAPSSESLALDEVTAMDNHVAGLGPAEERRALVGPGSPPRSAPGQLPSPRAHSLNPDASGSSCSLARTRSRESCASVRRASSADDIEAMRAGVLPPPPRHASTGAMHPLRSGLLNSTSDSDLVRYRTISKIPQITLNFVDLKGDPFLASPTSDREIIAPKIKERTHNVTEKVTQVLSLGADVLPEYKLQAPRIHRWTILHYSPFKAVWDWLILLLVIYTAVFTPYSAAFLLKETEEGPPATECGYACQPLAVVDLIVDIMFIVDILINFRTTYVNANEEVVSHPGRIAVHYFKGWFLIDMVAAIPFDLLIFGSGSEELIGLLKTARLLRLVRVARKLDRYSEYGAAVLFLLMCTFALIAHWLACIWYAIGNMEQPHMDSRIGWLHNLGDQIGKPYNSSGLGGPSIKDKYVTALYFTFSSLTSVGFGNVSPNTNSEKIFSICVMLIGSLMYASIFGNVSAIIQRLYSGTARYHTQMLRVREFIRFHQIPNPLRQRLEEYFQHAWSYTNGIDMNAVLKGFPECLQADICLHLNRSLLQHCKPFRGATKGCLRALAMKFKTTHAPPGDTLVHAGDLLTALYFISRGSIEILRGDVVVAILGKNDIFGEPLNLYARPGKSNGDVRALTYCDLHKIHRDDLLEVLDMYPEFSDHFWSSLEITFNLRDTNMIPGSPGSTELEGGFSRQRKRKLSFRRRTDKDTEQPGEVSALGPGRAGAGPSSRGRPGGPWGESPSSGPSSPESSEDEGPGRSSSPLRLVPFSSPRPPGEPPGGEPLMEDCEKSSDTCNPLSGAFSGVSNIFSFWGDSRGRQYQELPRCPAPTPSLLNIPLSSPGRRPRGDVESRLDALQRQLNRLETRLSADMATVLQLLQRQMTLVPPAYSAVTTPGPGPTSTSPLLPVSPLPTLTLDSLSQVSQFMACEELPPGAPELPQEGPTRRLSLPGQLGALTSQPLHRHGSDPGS

Row | Compound | pIC50 [1] | pIC50 (PCSK9 [2]) | pKd (PCSK9 [3])
1 | Cn1c(=O)n(-c2ccc(N[C@H]3CC[C@H](Nc4ncc(C5CC5)nn4)C3)nc2)c2ccc(C(=O)O)cc21 [Example 121, 1-(6-(((1S,3S)-3-((6-Cyclopropyl-1,2,4-triazin-3-yl)amino)cyclopentyl)amino)pyridin-3-yl)-3-methyl-2-oxo-2,3-dihydro-1H-benzo[d]imidazole-5-carboxylic acid] | < 4.40 | 9.00 | 8.80
2 | Cc1cnc(N[C@H]2CC[C@H](Nc3ccc(-n4cc(C#N)ccc4=O)cn3)C2)nn1 [Example 128, 6′-(((1S,3S)-3-((6-Methyl-1,2,4-triazin-3-yl)amino)cyclopentyl)amino)-2-oxo-2H-[1,3′-bipyridine]-5-carbonitrile] | < 4.40 | 7.70 | 7.52
3 | Cc1cnc(N[C@H]2CC[C@H](Nc3ccc(-n4cccc(Cl)c4=O)cn3)C2)nn1 [Example 129, 3-Chloro-6′-(((1S,3S)-3-((6-methyl-1,2,4-triazin-3-yl)amino)cyclopentyl)amino)-2H-[1,3′-bipyridin]-2-one] | < 4.40 | 8.80 | 8.89
4 | Cc1cnc(N[C@H]2CC[C@H](Nc3ccc(-n4cccc(C)c4=O)cn3)C2)nn1 [Example 131, 3-Methyl-6′-(((1S,3S)-3-((6-methyl-1,2,4-triazin-3-yl)amino)cyclopentyl)amino)-2H-[1,3′-bipyridin]-2-one] | < 4.14 | 8.57 | 8.62
5 | COc1cccn(-c2ccc(N[C@H]3CC[C@H](Nc4ncc(C)nn4)C3)nc2)c1=O [Example 132, 3-Methoxy-6′-(((1S,3S)-3-((6-methyl-1,2,4-triazin-3-yl)amino)cyclopentyl)amino)-2H-[1,3′-bipyridin]-2-one] | < 4.40 | 8.64 | 8.82
6 | COc1ccc(=O)n(-c2ccc(N[C@H]3CC[C@H](Nc4ncc(C)nn4)C3)nc2)c1 [Example 133, 5-Methoxy-6′-(((1S,3S)-3-((6-methyl-1,2,4-triazin-3-yl)amino)cyclopentyl)amino)-2H-[1,3′-bipyridin]-2-one] | < 4.40 | 7.77 | 7.77
7 | Cc1cnc(N[C@H]2CC[C@H](Nc3ccc(-n4cc(Cl)ccc4=O)cn3)C2)nn1 [Example 134, 5-Chloro-6′-(((1S,3S)-3-((6-methyl-1,2,4-triazin-3-yl)amino)cyclopentyl)amino)-2H-[1,3′-bipyridin]-2-one] | < 4.40 | 8.08 | 8.04
8 | Cc1cnc(N[C@H]2CC[C@H](Nc3ccc(-n4cccc(C(F)(F)F)c4=O)cn3)C2)nn1 [Example 135, 6′-(((1S,3S)-3-((6-Methyl-1,2,4-triazin-3-yl)amino)cyclopentyl)amino)-3-(trifluoromethyl)-2H-[1,3′-bipyridin]-2-one] | < 4.40 | 8.55 | 8.41
9 | Cc1cnc(N[C@H]2CC[C@H](Nc3ccc(-n4cccc(OC(F)F)c4=O)cn3)C2)nn1 [Example 187, 3-(Difluoromethoxy)-6′-(((1S,3S)-3-((6-methyl-1,2,4-triazin-3-yl)amino)cyclopentyl)amino)-2H-[1,3′-bipyridin]-2-one] | < 4.40 | 8.68 | 8.43
10 | Cc1cnc(N[C@H]2CC[C@H](Nc3ccc(-n4c(=O)ccc5cccnc54)cn3)C2)nn1 [Example 197, 1-(6-(((1S,3S)-3-((6-Methyl-1,2,4-triazin-3-yl)amino)cyclopentyl)amino)pyridin-3-yl)-1,8-naphthyridin-2(1H)-one] | < 4.40 | 8.60 | 8.64
11 | Cc1cnc(N[C@H]2CC[C@H](Nc3ccc(-n4cccc(-c5cnn(C)c5)c4=O)cn3)C2)nn1 [Example 198, 6′-(((1S,3S)-3-((6-Methyl-1,2,4-triazin-3-yl)amino)cyclopentyl)amino)-3-(1-methyl-1H-pyrazol-4-yl)-2H-[1,3′-bipyridin]-2-one] | < 4.40 | 8.54 | 8.42
12 | Cc1cnc(N[C@H]2CC[C@H](Nc3ccc(-n4c(=O)n(C)c5ccc(C#N)cc54)cn3)C2)nn1 [Example 210, 1-Methyl-3-(6-(((1S,3S)-3-((6-methyl-1,2,4-triazin-3-yl)amino)cyclopentyl)amino)pyridin-3-yl)-2-oxo-2,3-dihydro-1H-benzo[d]imidazole-5-carbonitrile] | < 4.40 | 9.05 | 9.22
13 | Cc1cnc(N[C@H]2CC[C@H](Nc3ccc(-n4c(=O)n(C)c5cccnc54)cn3)C2)nn1 [Example 212, 1-Methyl-3-(6-(((1S,3S)-3-((6-methyl-1,2,4-triazin-3-yl)amino)cyclopentyl)amino)pyridin-3-yl)-1,3-dihydro-2H-imidazo[4,5-b]pyridin-2-one] | < 4.40 | 8.74 | 8.77
14 | Cc1cnc(N[C@H]2CC[C@H](Nc3ccc(-n4nccc(Cl)c4=O)cn3)C2)nn1 [Example 221, 4-Chloro-2-(6-(((1S,3S)-3-((6-methyl-1,2,4-triazin-3-yl)amino)cyclopentyl)amino)pyridin-3-yl)pyridazin-3(2H)-one] | < 4.40 | 8.80 | 8.77
